Values joined by “and” are separate entries in the source; they are usually repeats but may differ in a detail not shown here. Equal entries are not always repeated.
Columns and labels:
human ICMT = human ICMT (Homo sapiens (Human), UniProt O60725); experiment: ICMT biochemical assay (Methyltransferase-Glo)
Description: Recombinant human ICMT was prepared by infection of Sf9 cells with a recombinant baculovirus containing the entire open reading frame of the human ICMT cDNA.
Cells producing ICMT were harvested 66 hours post-infection. The cells are homogenized and resuspended in 5 mM NaHPO4 (pH 7.0), and a cocktail of protease inhibitors. The membrane was pelleted, after removal of nuclei and debris, at 100,000×g for 1 hour. Membranes were resuspended in 5 mM NaHPO4 (pH 7.0) with 5 mM EDTA at 10-12 mg/ml. The suspension was stored at −80° C. in multiple aliquots.
An ICMT enzymatic assay was developed using Promega's Methyltransferase-GloTMreagents. In the assay, ICMT catalyzes the methylation of the N-Acetyl-S-farnesyl-L-cysteine by transferring a methyl group from SAM to the farnesylated cysteine and further converts the SAM to SAH. The methyltransferase activity is measured based on the amount of SAH produced from the reaction through the use of coupling enzymes that convert the SAH to ATP. The MTase-Glo detection solution then catalyzes the formation of light from ATP.
A final concentration of 2.0 μM and 20 μM of SAM and peptide were added and further incubated for 90 minutes at room temperature before adding the MTase Glo and detection reagent. Reaction signals were detected using microplate readers on luminescent mode (Satire Tecan). The IC50 was determined by nonlinear regression, using GraphPad Prism version, 5.03.

MIAPaCa-2 cells = experiment: Cell proliferation assay (CellTiter-Glo); assay type: cell-based; conditions: Homo sapiens, MIA PaCa-2, 72 h, 3 days
Description: Cell proliferation assay was performed using CellTiter-Glo Luminescent Cell Viability Assay (Promega) following manufacturer's instructions. The MIAPaCa-2 cells (ATCC) were treated with compounds that were serial diluted in the media (DMEM). Plates were incubated for 3 days at 37° C. in 5% CO2. After 3 days, an equal volume of Cell Titer Glo reagent was added. Plates were rocked on a rotator for 2 hours. 100 μL of each well was transferred to a 96-well opaque plate, and luminescence emitted was measured with the Tecan Safire II.

[1] = test system: Prelamin A in MIAPaCa-2 cells; experiment: Prelamin A accumulation assay (Western blot); assay type: cell-based; conditions: various concentrations, 48 hours
Description: The MIAPaCa-2 cells were seeded in 6-well plates. After seeding for 24 hours, the cells were treated with either DMSO or varying concentration of the compound and incubated for 48 hours. The cells were trypsinized and the lysate was extracted with RIPA buffer (Santa Cruz). The total protein concentration of lysate is quantified using the standard Bradford assay (Biorad protein assay, microplate standard assay).
Western blot analysis was performed using antibody against Prelamin A in MIAPaCa cells treated with compound at various concentration for 48 hours. 15.0 μg of cell lysate was run on a SDS-PAGE and then transferred to nitrocellulose membrane. The membrane was then incubated in blocking buffer [PBS (phosphate buffered saline) with 0.1% Tween 20 and 5% dry milk] at room temperature for 1 hour, followed by incubation with Prelamin A antibody (rat monoclonal antibody) at 1:2500 dilution in PBS, 0.1% Tween 20 and 5% dry milk overnight at 4° C., followed by three washes (15 minutes each wash) in PBS, 0.1% Tween 20 on the next day.
The nitrocellulose membrane was then incubated with secondary antibody solution at room temperature for 1 hour, washed three times before developed with enhanced Chemiluminescence (ECL) mixture (Amersham, Aylesbury, United Kingdom), incubated for 5 minutes and exposed using Fluor Chem E System instrument (Protein Simple).

[2] = ICMT membrane extract from Sf-9 cells, 30 min preincubation, 90 min reaction

human ICMT, sequence (O60725 whole entry): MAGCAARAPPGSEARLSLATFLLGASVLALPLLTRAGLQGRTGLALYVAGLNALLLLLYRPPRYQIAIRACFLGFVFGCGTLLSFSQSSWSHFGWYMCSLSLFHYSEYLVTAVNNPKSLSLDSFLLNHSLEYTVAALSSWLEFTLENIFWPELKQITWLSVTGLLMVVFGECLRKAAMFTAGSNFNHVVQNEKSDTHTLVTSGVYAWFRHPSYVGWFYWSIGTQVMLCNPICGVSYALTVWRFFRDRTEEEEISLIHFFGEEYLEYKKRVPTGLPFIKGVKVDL

Compound	IC50 (human ICMT; [2])	other results
Cc1nccn1-c1cc(OCCOc2ccc(C#N)cc2F)ccn1 [Compound 53, 3-fluoro-4-(2-((2-(2-methyl-1H-imidazol-1-yl)pyridin-4-yl)oxy)ethoxy)benzonitrile]	440 pM	GI50 (MIAPaCa-2 cells): 2200 nM
Cn1nccc1-c1cc(OCCOc2ccc(C#N)cc2)ccn1 [Compound 59, 4-(2-((2-(1-methyl-1H-pyrazol-5-yl)pyridin-4-yl)oxy)ethoxy)benzonitrile]	20000 pM	GI50 (MIAPaCa-2 cells): 5520 nM; Prelamin A accumulation (Western blot) [1]: Prelamin A accumulation
Cn1nccc1-c1cc(OCCOc2ccc(C#N)cc2F)ccn1 [Compound 69, 3-fluoro-4-(2-((2-(1-methyl-1H-pyrazol-5-yl)pyridin-4-yl)oxy)ethoxy)benzonitrile]	2800 pM and 1400 pM and 1500 pM	GI50 (MIAPaCa-2 cells): 5050 nM; Prelamin A accumulation (Western blot) [1]: Prelamin A accumulation
Cc1nccn1-c1cc(OCCOc2ccc(C#N)cn2)ccn1 [Compound 70, 6-(2-((2-(2-methyl-1H-imidazol-1-yl)pyridin-4-yl)oxy)ethoxy)nicotinonitrile]	27000 pM	GI50 (MIAPaCa-2 cells): 5990 nM; Prelamin A accumulation (Western blot) [1]: Prelamin A accumulation
Cc1nccn1-c1cccc(OC[C@@H](C)Oc2ccc(C#N)cc2F)c1 [Compound 78, (R)-3-fluoro-4-((1-(3-(2-methyl-1H-imidazol-1-yl)phenoxy)propan-2-yl)oxy)benzonitrile]		IC50 (human ICMT; unit printed in cell (pM)): 75 pM; GI50 (MIAPaCa-2 cells): 6020 nM
Cn1nccc1-c1cc(OCCOc2ccc(C#N)cc2)ccc1F [Compound 93, 4-(2-(4-fluoro-3-(1-methyl-1H-pyrazol-5-yl)phenoxy)ethoxy)benzonitrile]	6600 pM	
Cn1nccc1-c1cc(F)cc(OCCOc2ccc(C#N)cc2)c1 [Compound 94, 4-(2-(3-fluoro-5-(1-methyl-1H-pyrazol-5-yl)phenoxy)ethoxy)benzonitrile]	1600 pM	
Cc1nncn1-c1cc(OCCOc2ccc(C#N)cc2F)ccn1 [Compound 95, 3-fluoro-4-(2-((2-(3-methyl-4H-1,2,4-triazol-4-yl)pyridin-4-yl)oxy)ethoxy)benzonitrile]	10000 pM	
Cn1nccc1-c1ccc(F)c(OCCOc2ccc(C#N)cc2)c1 [Compound 96, 4-(2-(2-fluoro-5-(1-methyl-1H-pyrazol-5-yl)phenoxy)ethoxy)benzonitrile]	400000 to 3e+06 pM	
Cn1nccc1-c1cc(OCCOc2ncc(C#N)cc2F)ccn1 [Compound 97, 5-fluoro-6-(2-((2-(1-methyl-1H-pyrazol-5-yl)pyridin-4-yl)oxy)ethoxy)nicotinonitrile]	470000 to 1e+06 pM	
Cn1nccc1-c1cc(OCCOc2ccc(Cl)cc2C#N)ccn1 [Compound 98, 5-chloro-2-(2-((2-(1-methyl-1H-pyrazol-5-yl)pyridin-4-yl)oxy)ethoxy)benzonitrile]	10000 pM	
Cc1nccn1-c1cc(OCCOc2ccc(Cl)cc2C#N)ccn1 [Compound 99, 5-chloro-2-(2-((2-(2-methyl-1H-imidazol-1-yl)pyridin-4-yl)oxy)ethoxy)benzonitrile]	2600 pM	
Cn1nccc1-c1cc(OCCOc2ccc(C#N)cc2Cl)ccn1 [Compound 100, 3-chloro-4-(2-((2-(1-methyl-1H-pyrazol-5-yl)pyridin-4-yl)oxy)ethoxy)benzonitrile]	1800 pM	
Cn1nccc1-c1cc(OCCOc2ccc(Cl)cc2F)ccn1 [Compound 101, 4-(2-(4-chloro-2-fluorophenoxy)ethoxy)-2-(1-methyl-1H-pyrazol-5-yl)pyridine]	29000 pM	
Cc1nccn1-c1cccc(OCCOc2ccc(Cl)cc2F)c1 [Compound 102, 1-(3-(2-(4-chloro-2-fluorophenoxy)ethoxy)phenyl)-2-methyl-1H-imidazole]	68000 pM	
Cc1nccn1-c1cc(OCCOc2ccc(Cl)cc2F)ccn1 [Compound 103, 4-(2-(4-chloro-2-fluorophenoxy)ethoxy)-2-(2-methyl-1H-imidazol-1-yl)pyridine]	3100 pM	
Cc1nccn1-c1cc(OCCOc2ccc(Br)cc2F)ccn1 [Compound 104, 4-(2-(4-bromo-2-fluorophenoxy)ethoxy)-2-(2-methyl-1H-imidazol-1-yl)pyridine]	1700 pM	

Compound	IC50 (human ICMT; [2])	other results
Cn1nccc1-c1cc(F)cc(OCCOc2ccc(C#N)cc2F)c1 [Compound 105, 3-fluoro-4-(2-(3-fluoro-5-(1-methyl-1H-pyrazol-5-yl)phenoxy)ethoxy)benzonitrile]	6000 pM	
Cn1nccc1-c1cccc(OCCOc2ccc(C#N)cc2F)n1 [Compound 106, 3-fluoro-4-(2-((6-(1-methyl-1H-pyrazol-5-yl)pyridin-2-yl)oxy)ethoxy)benzonitrile]	300000 to 1e+06 pM	
Cn1nccc1-c1cc(OCCOc2ncc(C#N)cc2F)ccc1F [Compound 107, 5-fluoro-6-(2-(4-fluoro-3-(1-methyl-1H-pyrazol-5-yl)phenoxy)ethoxy)nicotinonitrile]	150000 pM	
Cc1nccn1-c1cc(OCCOc2ccc(C#N)cc2)ccc1F [Compound 108, 4-(2-(4-fluoro-3-(2-methyl-1H-imidazol-1-yl)phenoxy)ethoxy)benzonitrile]	51000 pM	
Cc1nccn1-c1cc(OCCOc2ccc(C#N)cn2)ccc1F [Compound 109, 6-(2-(4-fluoro-3-(2-methyl-1H-imidazol-1-yl)phenoxy)ethoxy)nicotinonitrile]	170000 pM	
Cn1nccc1-c1cccc(OCCOc2ccc(Cl)cc2)c1 [Compound 110, 5-(3-(2-(4-chlorophenoxy)ethoxy)phenyl)-1-methyl-1H-pyrazole]	270000 pM	
Cc1nccn1-c1cccc(OCCOc2ccc(C#N)cc2C(F)(F)F)c1 [Compound 111, 4-(2-(3-(2-methyl-1H-imidazol-1-yl)phenoxy)ethoxy)-3-(trifluoromethyl)benzonitrile]	180000 pM	
Cc1nccn1-c1cccc(OCCOc2ccc(Cl)cc2)c1 [Compound 112, 1-(3-(2-(4-chlorophenoxy)ethoxy)phenyl)-2-methyl-1H-imidazole]	250000 pM	
Cn1nccc1-c1cc(OCCOc2ccc(C#N)cc2F)ccc1F [Compound 113, 3-fluoro-4-(2-(4-fluoro-3-(1-methyl-1H-pyrazol-5-yl)phenoxy)ethoxy)benzonitrile]	22000 pM	
Cc1nccn1-c1cccc(OCCOc2ccc(F)cc2C#N)c1 [Compound 114, 5-fluoro-2-(2-(3-(2-methyl-1H-imidazol-1-yl)phenoxy)ethoxy)benzonitrile]	82000 pM	
Cc1nccn1-c1cc(OCCOc2ccc(Cl)cc2)ccn1 [Compound 115, 4-(2-(4-chlorophenoxy)ethoxy)-2-(2-methyl-1H-imidazol-1-yl)pyridine]	160000 pM	
N#Cc1ccc(OCCOc2cccc(-c3ccnn3C3CC3)c2)c(F)c1 [Compound 116, 4-(2-(3-(1-cyclopropyl-1H-pyrazol-5-yl)phenoxy)ethoxy)-3-fluorobenzonitrile]	9500 pM	
N#Cc1ccc(OCCOc2cccc(-c3ccnn3C3CC3)c2)cc1 [Compound 117, 4-(2-(3-(1-cyclopropyl-1H-pyrazol-5-yl)phenoxy)ethoxy)benzonitrile]	55000 pM	
N#Cc1ccc(OCCOc2cccc(-c3ccnn3C3CC3)c2)c(Cl)c1 [Compound 118, 3-chloro-4-(2-(3-(1-cyclopropyl-1H-pyrazol-5-yl)phenoxy)ethoxy)benzonitrile]	2200 pM	
Cc1nccn1-c1cc(OCCOc2ccc(F)cc2C#N)ccn1 [Compound 119, 5-fluoro-2-(2-((2-(2-methyl-1H-imidazol-1-yl)pyridin-4-yl)oxy)ethoxy)benzonitrile]	80000 pM	
N#Cc1ccc(OCCOc2ccnc(-n3cnnn3)c2)c(F)c1 [Compound 120, 4-(2-((2-(1H-tetrazol-1-yl)pyridin-4-yl)oxy)ethoxy)-3-fluorobenzonitrile]	12000 pM	
Cn1nccc1-c1cc(OCCOc2ccc(Br)cc2F)ccn1 [Compound 121, 4-(2-(4-bromo-2-fluorophenoxy)ethoxy)-2-(1-methyl-1H-pyrazol-5-yl)pyridine]	70000 pM	
